Data as given in paper PMC7307906, “Macrocyclic Modalities Combining Peptide Epitopes and Natural Product Fragments” (Journal of the American Chemical Society, 2020).
Where a SMILES comes first, the peptide text is derived from it.

What was measured:
human MC3R [1] = target: T1, human MC3R (Homo sapiens, UniProt P41968); test: cAMP assay (LANCE) in T-Rex-293 cells expressing MC3R; type: cell-based; settings: cAMP assay; mean (± SEM) of at least three independent experiments; read-out: EC50 hMC3R cAMP
T1 construct: expressed in transfected cells

human MC1R [2] = target: T2, human MC1R (Homo sapiens, UniProt Q01726); test: Melanocortin receptor radioligand binding (SPA, [125I]-NDP-α-MSH displacement), MC1R; settings: competitive binding, mean (± SEM) of at least three independent experiments, read-out: IC50 hMC1R binding
T2 construct: expressed in transfected cells

human MC4R [3] = target: T3, human MC4R (Homo sapiens, UniProt P32245); test: Melanocortin receptor radioligand binding (SPA, [125I]-NDP-α-MSH displacement), MC4R; settings: competitive binding, mean (± SEM) of at least three independent experiments, read-out: IC50 hMC4R binding
T3 construct: expressed in transfected cells

hMC1−5R = test: Melanocortin receptor radioligand binding, result stated for all receptors together; parameters: species or system human; settings: human MC receptors, radioligand binding
Excerpt: Example concentration response curves for selected PepNats in MC1R, MC3R, MC4R, MC5R radioligand binding assays and MC1R, MC3R, MC4R cAMP assays. Responses were normalized to reference agonist NDP -α-MSH and presented as % effect of control, with full competition in binding defined as -100% and full agonism in cAMP assays defined as […]
binding assay. Threshold to define a compound as active was set to -30% in binding assays and 20% in cAMP assays respectively. Data are from at least three independent experiments and error bars represent ± Standard Error of the […]
% s p e c ific b in d in g o f
(1 picture or pasted object on this page, not shown here) […]
expression, MC1R and MC4R transfected cells were treated with 0.1 ng /mL and MC3R transfected cells with 10 ng/mL doxycyclin, for 24 h before assay.
Melanocortin receptor radioligand binding and cAMP assays.
Binding and cAMP assays were performed as described by Durek et al.7 “A 384-well format scintillation proximity assay (SPA) was used to identify compounds that show competitive binding to the human Melanocortin receptor 1,3,4 or 5 ligand binding domain (LBD). […] The inhibition of the scintillation signal by displacement of [ 125I]- NDP-α-MSH by test compounds were detected by a 1450 MicroBeta Trilux scintillation counter […]
Plates were incubated for 16-23 h in the dark at room temperature before reading on a 1450 […]
Measurements of cAMP production were performed using LANCE® cAMP kits (PerkinElmer) in a total assay volume of 12 µl/well. […] The reaction was stopped with detection buffer containing 10 µM Biotin-cAMP and 15 µM LANCE Eu-W8044 labelled streptavidin (PerkinElmer LANCE cAMP kit). cAMP production was detected by homogenous time resolved fluorescence (HTRF) (λex = 340 nm, λem = 665 and 615 nm) using a Pherastar (BMG Labtech).
PepNats, literature compounds and references were tested in ten-point concentration response (½ log serial dilution) with 100, 10 or 1 µM as final start concentrations. Raw data output was analyzed in Screener software (Genedata AG) and pEC50 and pIC50 values calculated using a four-

human MC4R [4] = target: T3, human MC4R; test: cAMP assay (LANCE) in T-Rex-293 cells expressing MC4R; type: cell-based; settings: cAMP assay; mean (± SEM) of at least three independent experiments; read-out: EC50 hMC4R cAMP
human MC1R [5] = target: T2, human MC1R; test: cAMP assay (LANCE) in T-Rex-293 cells expressing MC1R; type: cell-based
human MC5R = target: T4, human MC5R (Homo sapiens, UniProt P33032); test: Melanocortin receptor radioligand binding (SPA, [125I]-NDP-α-MSH displacement), MC5R; settings: competitive binding, [125I]-NDP-α-MSH; mean (± SEM) of at least three independent experiments; read-out: IC50 hMC5R binding
T4 construct: expressed in transfected cells; host or cells: HEK293-6E suspension cells, transient expression; membranes

human MC3R [6] = target: T1, human MC3R; test: Melanocortin receptor radioligand binding (SPA, [125I]-NDP-α-MSH displacement), MC3R; settings: competitive binding, mean (± SEM) of at least three independent experiments, read-out: IC50 hMC3R binding

T2 sequence (Q01726 whole entry): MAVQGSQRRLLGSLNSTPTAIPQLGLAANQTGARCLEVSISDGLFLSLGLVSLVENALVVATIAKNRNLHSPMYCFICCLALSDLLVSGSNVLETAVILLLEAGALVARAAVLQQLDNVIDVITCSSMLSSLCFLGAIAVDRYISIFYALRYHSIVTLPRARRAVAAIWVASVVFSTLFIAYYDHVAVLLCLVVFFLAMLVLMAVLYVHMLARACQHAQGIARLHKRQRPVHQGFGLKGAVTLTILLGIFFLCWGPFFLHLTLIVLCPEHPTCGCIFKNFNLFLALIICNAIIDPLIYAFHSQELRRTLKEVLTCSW
T1 sequence (P41968 whole entry): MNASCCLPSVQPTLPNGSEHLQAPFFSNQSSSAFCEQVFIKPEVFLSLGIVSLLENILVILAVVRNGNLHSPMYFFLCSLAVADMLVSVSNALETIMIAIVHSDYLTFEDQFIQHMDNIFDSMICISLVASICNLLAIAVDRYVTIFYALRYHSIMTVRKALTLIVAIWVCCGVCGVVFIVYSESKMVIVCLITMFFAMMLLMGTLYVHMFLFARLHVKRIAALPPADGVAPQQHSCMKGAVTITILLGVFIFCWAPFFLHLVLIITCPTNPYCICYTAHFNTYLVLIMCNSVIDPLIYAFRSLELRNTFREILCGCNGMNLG
T3 sequence (P32245 whole entry): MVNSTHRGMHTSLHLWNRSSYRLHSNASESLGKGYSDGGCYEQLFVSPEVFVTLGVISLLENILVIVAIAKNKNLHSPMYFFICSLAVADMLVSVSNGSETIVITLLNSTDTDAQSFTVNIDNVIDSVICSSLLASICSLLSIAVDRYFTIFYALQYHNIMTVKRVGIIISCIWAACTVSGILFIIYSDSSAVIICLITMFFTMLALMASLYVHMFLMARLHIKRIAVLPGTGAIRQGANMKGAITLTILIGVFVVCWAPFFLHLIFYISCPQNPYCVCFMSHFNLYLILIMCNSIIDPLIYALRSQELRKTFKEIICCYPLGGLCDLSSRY
T4 sequence (P33032 whole entry): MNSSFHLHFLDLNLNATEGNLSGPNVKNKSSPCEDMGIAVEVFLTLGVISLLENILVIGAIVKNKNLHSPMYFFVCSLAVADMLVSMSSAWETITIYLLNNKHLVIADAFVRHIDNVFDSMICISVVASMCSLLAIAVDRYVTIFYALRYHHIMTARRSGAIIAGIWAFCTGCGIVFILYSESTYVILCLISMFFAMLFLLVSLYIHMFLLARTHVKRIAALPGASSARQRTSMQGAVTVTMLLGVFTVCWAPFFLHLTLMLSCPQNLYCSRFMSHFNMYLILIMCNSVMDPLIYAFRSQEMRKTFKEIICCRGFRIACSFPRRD

- EC50 (human MC3R [1]): > 100000 nM
- IC50 (human MC1R [2]): 10000 ± 1000 nM
- IC50 (human MC4R [3]): 180 ± 10 nM
- binding to the MC receptors (in words) (hMC1−5R): micromolar affinity
- EC50 (human MC4R [4]): > 100000 nM
- Emax (human MC1R [5]; T-REx-293, read-out: % Effect hMC1R cAMP): 44%
- agonistic activity at MC1R (in words) (human MC1R [5]; cAMP assay, hMC1R): weak partial agonistic activity
- EC50 (human MC1R [5]; cAMP assay, mean (± SEM) of at least three independent experiments, read-out: EC50 hMC1R cAMP): 1200 ± 400 nM
- IC50 (human MC5R): 1600 ± 300 nM
- IC50 (human MC3R [6]): 1600 ± 100 nM
Structure (SMILES): C[C@@H]1NC(=O)[C@H](CC(N)=O)NC(=O)[C@H](Cc2ccccc2)NC(=O)[C@H](Cc2ccccc2)NC(=O)[C@H](CCCNC(=N)N)NC(=O)[C@@H](NC(=O)[C@@H](N)Cc2ccc(O)cc2)CSSC[C@@H](C(=O)N[C@@H](Cc2ccc(O)cc2)C(N)=O)NC(=O)[C@H](Cc2ccccc2)NC1=O [compound 28, reference compound] (HELM PEPTIDE1{Y.C.R.F.F.N.A.F.C.Y.[am]}$PEPTIDE1,PEPTIDE1,2:R3-9:R3$$$V2.0)
